Data published in US20160002294A1, “NOVEL POLYPEPTIDES HAVING SATIETY HORMONE RELEASING ACTIVITY” (SOLAE LLC, priority 2013, published 2016).
Read-outs that look alike come from different tables or passages of the source.

How the values were obtained:
STC-1 cells [1] = conditions: 4 h
Procedure: To assay for CCK release activity, SEQ ID NO: 1 was dissolved in Dulbecco's phosphate buffered saline (D-PBS) at 10 mg/ml. This solution was then diluted to between 0.002 and 4 mg/ml with d-PBS, then added to media of STC-1 cells (passage 25 to 28) in 1:1 ratio of D-PBS and Dulbecco's Modified Eagle's Medium (DMEM-high glucose) and incubated with the cells at 37° C. (99° F.) and a CO2 level of 5% for 4 hours. The solution containing SEQ ID NO: 1 was added to cells at a variety of concentrations ranging from 0.001 to 2 mg/ml to generate a dose-response curve.
Following the incubation period, concentrations of CCK released by STC-1 cells into the media were assayed using a commercially available immunoassay kit for CCK detection from Phoenix Pharmaceuticals, Burlingame, Calif. (catalogue number EK-069-04). Assays were performed according to the manufacturer's instructions using a standard curve covering a range of concentrations from 0.4 to 1000 pg/well. Absorbance was measured at a wavelength of 450 nm.
CCK quantities obtained from each tested concentration of SEQ ID NO: 1 were plotted vs. log concentration of peptide. A dose-response curve was then generated by fitting the data with a logistic function using OriginLab graphing software.
Each variant was assayed for CCK activity at 2 mg/ml using the method described in Example 1.

STC-1 cells [2] = conditions: 2 h
Procedure: To assay for GLP-1 release activity, SEQ ID NO: 1 was dissolved in Dulbecco's phosphate buffered saline (D-PBS) at 10 mg/ml. This solution was diluted to between 0.002 and 4 mg/ml with D-PBS, then added to media of STC-1 cells (passage 25 to 28) in 1:1 ratio of D-PBS and Dulbecco's Modified Eagle's Medium (DMEM-high glucose) and incubated with the cells at 37° C. (99° F.) and a CO2 level of 5% for 2 hours. The solution containing SEQ ID NO: 1 was added to cells at a variety of concentrations ranging from 0.001 to 2 mg/ml to generate a dose-response curve.
Following the incubation period, concentrations of GLP-1 released by the STC-1 cells into the media were assayed using a commercially available immunoassay kit for GLP-1 detection from Phoenix Pharmaceuticals, Burlingame, CA (catalogue number EK-028-11). Assays were performed according to the manufacturer's instructions using a standard curve covering a range of concentrations from 0.4 to 1000 pg/well. Absorbance was measured at a wavelength of 450 nm.
GLP-1 quantities obtained from each tested concentration of SEQ ID NO: 1 were plotted vs. log concentration of peptide. A dose-response curve was then generated by fitting the data with a logistic function using OriginLab graphing software.
Each variant was assayed for GLP-1 activity at 2 mg/ml using the method described in Example 2.

With “H-TSLDFPALSWLRL-OH [SEQ ID NO: 1, NH2-TSLDFPALSWLRL-COOH]” the EC50 (STC-1 cells [1]) was 43 µM and the EC50 (STC-1 cells [2]) was 186 µM.
